Measurements as given in patent US8377691B2 (priority 2006, dated 2013).
Entries after “also recorded” stand apart in the source; their conditions may differ.

Legend:
Type in all cases: biochemical
[1] = biological target: A/M2 Udorn72 with a mutation (S31N) (Influenza A virus, UniProt P0DOF5, S31N)
B/M2 Lee40 = B/M2 Lee40 (Influenza B virus, UniProt P03493)
A/M2 PR8/34 (V27S31) = A/M2 PR8/34 (V27S31) (Influenza A virus, UniProt P06821, A27V/N31S)
A/M2 PR8/34 = A/M2 PR8/34 (Influenza A virus, UniProt P06821)

| SMILES | H+ transport across VLP membranes (fluorescence) [1] | H+ transport across VLP membranes (fluorescence) (B/M2 Lee40) | H+ translocation across VLP membranes (fluorescence) (A/M2 PR8/34 (V27S31)) | H+ transport across VLP membranes (fluorescence) (A/M2 PR8/34) |
| --- | --- | --- | --- | --- |
| NC12CC3CC(CC(C3)C1)C2 [amantadine] | resistant to inhibition | exerted no effect | in the absence, but not in the presence of 100 μM of the drug | exerted no effect; also recorded: in the presence or absence of amantadine |
| CC(N)C12CC3CC(CC(C3)C1)C2 (stereo not drawn) [rimantadine] |  | exerted no effect |  | exerted no effect |
